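A five-concentration, 48-hour dose response in 96-well plates underlies each endpoint, interpolated linearly between surrounding concentrations. GI50 = concentration required for 50% inhibition of growth.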 The source made the active and inactive calls. No stated cut-off is given here; in the data, active = GI50 up to about 1.1 µM and inactive = higher.
Experiments:
Test in all cases: NCI anticancer screen, dose series, 48 h
[1] = tested on: NCI-H460
[2] = tested on: A498
[3] = tested on: Hs-578T
[4] = tested on: OVCAR-4
[5] = tested on: UO-31
[6] = tested on: 786-0
[7] = tested on: MDA-N
[8] = tested on: MCF7
[9] = tested on: T47D
[10] = tested on: EKVX
[11] = tested on: SN12C
[12] = tested on: MDA-MB-231
[13] = tested on: SF-295
[14] = tested on: UACC-62
[15] = tested on: SK-MEL-28
[16] = tested on: SK-MEL-5
[17] = tested on: PC-3
[18] = tested on: CCRF-CEM
[19] = tested on: SNB-75
[20] = tested on: BT-549

Row | Compound | GI50 [1] | GI50 [2] | GI50 [3] | GI50 [4] | GI50 [5] | GI50 [6] | GI50 [7] | GI50 [8] | GI50 [9] | GI50 [10] | GI50 [11] | GI50 [12] | GI50 [13] | GI50 [14] | GI50 [15] | GI50 [16] | GI50 [17] | GI50 [18] | GI50 [19] | GI50 [20]
1 | O=C(/C=C/c1ccc(O)c(O)c1O)OCCc1ccccc1 | 21.6 µM (inactive) | 74.6 µM (inactive) | > 100 µM (inactive) | 15.9 µM (inactive) | 38.7 µM (inactive) | 16 µM (inactive) | 13 µM (inactive) | 14.5 µM (inactive) | 82.2 µM (inactive) | > 100 µM (inactive) | 18.4 µM (inactive) | 24.9 µM (inactive) | 19.2 µM (inactive) | 34 µM (inactive) | > 100 µM (inactive) | > 100 µM (inactive) | 48.9 µM (inactive) |  |  | 
2 | COc1cc(OC2OC(CO)C(O)C(O)C2O)c2c(c1)O[C@@H]1[C@H](O)Oc3cc(OC)c(OC)cc3[C@]1(O)C2=O (some centres undefined) | > 25 µM (inactive) | > 25 µM (inactive) | > 25 µM (inactive) | > 25 µM (inactive) | > 25 µM (inactive) | > 25 µM (inactive) | > 25 µM (inactive) | > 25 µM (inactive) | > 25 µM (inactive) | > 25 µM (inactive) | > 25 µM (inactive) | > 25 µM (inactive) | > 25 µM (inactive) | > 25 µM (inactive) | > 25 µM (inactive) | > 25 µM (inactive) | > 25 µM (inactive) | > 25 µM (inactive) | > 25 µM (inactive) | 
3 | C(=C\C(SCc1ccccc1)SCc1ccccc1)/c1ccccc1 | > 10 µM (inactive) | > 10 µM (inactive) | > 10 µM (inactive) | > 10 µM (inactive) | > 10 µM (inactive) | > 10 µM (inactive) | > 10 µM (inactive) | > 10 µM (inactive) | > 10 µM (inactive) | > 10 µM (inactive) | > 10 µM (inactive) | > 10 µM (inactive) | > 10 µM (inactive) | > 10 µM (inactive) | > 10 µM (inactive) | > 10 µM (inactive) | > 10 µM (inactive) | > 10 µM (inactive) | > 10 µM (inactive) | 
4 | CC(=O)OCC1OC(SC2OC(COC(C)=O)C(OC(C)=O)C(OC(C)=O)C2OC(C)=O)C(OC(C)=O)C(OC(C)=O)C1OC(C)=O (centres undefined) | > 100 µM (inactive) | 54.1 µM (inactive) |  | > 100 µM (inactive) | > 100 µM (inactive) | > 100 µM (inactive) | > 100 µM (inactive) | > 100 µM (inactive) | > 100 µM (inactive) | > 100 µM (inactive) | > 100 µM (inactive) | > 100 µM (inactive) | > 100 µM (inactive) | > 100 µM (inactive) | > 100 µM (inactive) | > 100 µM (inactive) |  | > 100 µM (inactive) | > 100 µM (inactive) | > 100 µM (inactive)
5 | CC(C)(C)CNCCCNc1ccc(Cl)cc1 | 37.2 µM (inactive) | 14.8 µM (inactive) | 40.1 µM (inactive) | 60.8 µM (inactive) | 61.2 µM (inactive) | 82.2 µM (inactive) | 46 µM (inactive) | 11.9 µM (inactive) |  | 48.6 µM (inactive) | 28.7 µM (inactive) | 23.2 µM (inactive) | 17.1 µM (inactive) | 17.2 µM (inactive) | 20.9 µM (inactive) |  | 51.3 µM (inactive) | 35.8 µM (inactive) |  | 70.6 µM (inactive)
6 | Oc1ccc(-c2nc3cc(F)ccc3s2)cc1 | 19.3 µM (inactive) |  |  | 13.6 µM (inactive) | 19.3 µM (inactive) | 28.6 µM (inactive) | 28.4 µM (inactive) | 1.14 µM (inactive) | 5.22 µM (inactive) | 13.2 µM (inactive) | 22.2 µM (inactive) |  | 19.6 µM (inactive) | 17.5 µM (inactive) | 21.6 µM (inactive) | 19.5 µM (inactive) | 22.9 µM (inactive) | 43.8 µM (inactive) |  | 20 µM (inactive)
7 | N/N=C1/CCCc2nonc21 | > 100 µM (inactive) |  | > 100 µM (inactive) | > 100 µM (inactive) |  | > 100 µM (inactive) | > 100 µM (inactive) | > 100 µM (inactive) | > 100 µM (inactive) | > 100 µM (inactive) | > 100 µM (inactive) | > 100 µM (inactive) | > 100 µM (inactive) | > 100 µM (inactive) | > 100 µM (inactive) | > 100 µM (inactive) | > 100 µM (inactive) | > 100 µM (inactive) |  | 
8 | CCN1c2nc3ccccc3nc2N(CC)c2nc3ccccc3nc21 | 32.9 µM (inactive) | 57.3 µM (inactive) | 71.4 µM (inactive) |  | 96.6 µM (inactive) | 46.1 µM (inactive) | 57.8 µM (inactive) | 96.4 µM (inactive) |  | 19.1 µM (inactive) | 47.1 µM (inactive) | 70.8 µM (inactive) | 39.7 µM (inactive) | 39.2 µM (inactive) | 46.5 µM (inactive) | 41.2 µM (inactive) | 61.5 µM (inactive) | 48.3 µM (inactive) | > 10 µM (inactive) | 80.5 µM (inactive)
9 | C/C(O[Si](C(C)C)(C(C)C)C(C)C)=C(\C)C(=O)N(C)c1ccccc1Cl | > 100 µM (inactive) | > 100 µM (inactive) |  | > 100 µM (inactive) | > 100 µM (inactive) | > 100 µM (inactive) |  |  | > 100 µM (inactive) | > 100 µM (inactive) | > 100 µM (inactive) | > 100 µM (inactive) | > 100 µM (inactive) |  | > 100 µM (inactive) | > 100 µM (inactive) |  |  | 81.5 µM (inactive) | > 100 µM (inactive)
10 | CC(=O)OCC(OC(C)=O)C(OC(C)=O)C(/C=N\Nc1nc2ccccc2c(=O)[nH]1)OC(C)=O (centres undefined) | > 100 µM (inactive) | > 100 µM (inactive) |  |  | > 100 µM (inactive) | > 100 µM (inactive) | > 100 µM (inactive) | > 100 µM (inactive) | > 100 µM (inactive) | > 100 µM (inactive) | > 100 µM (inactive) | > 100 µM (inactive) | > 100 µM (inactive) | > 100 µM (inactive) | > 100 µM (inactive) | > 100 µM (inactive) | > 100 µM (inactive) | > 100 µM (inactive) | > 100 µM (inactive) | > 100 µM (inactive)
11 | CCOP(=O)(OCC)C(c1ccccc1)N(C(=O)NC(F)(F)F)c1cccc(F)c1 (centres undefined) | > 100 µM (inactive) |  | 78.3 µM (inactive) |  | 58.6 µM (inactive) | > 100 µM (inactive) | > 100 µM (inactive) | > 100 µM (inactive) |  | 94.8 µM (inactive) | > 100 µM (inactive) | > 100 µM (inactive) | > 100 µM (inactive) |  | > 100 µM (inactive) | > 100 µM (inactive) | 45.8 µM (inactive) | > 100 µM (inactive) | > 100 µM (inactive) | 
12 | O=P(O)(O)c1ccccc1Oc1ccccc1 | > 100 µM (inactive) | 3.95 µM (inactive) | > 100 µM (inactive) |  | > 100 µM (inactive) | > 100 µM (inactive) | > 100 µM (inactive) | > 100 µM (inactive) |  | > 100 µM (inactive) | > 100 µM (inactive) | > 100 µM (inactive) | > 100 µM (inactive) | > 100 µM (inactive) | > 100 µM (inactive) | > 100 µM (inactive) | > 100 µM (inactive) | > 100 µM (inactive) | 30.3 µM (inactive) | > 100 µM (inactive)
13 | COC(=O)C1=C(C)NC(=S)NC1c1ccc(N(CCCl)CCCl)cc1Cl (centres undefined) | 22 µM (inactive) |  | > 22 µM (inactive) | 16.3 µM (inactive) | 35.8 µM (inactive) | 51.3 µM (inactive) |  | 16.7 µM (inactive) | 6.71 µM (inactive) | 2.11 µM (inactive) | 34.2 µM (inactive) | 21 µM (inactive) | 19.4 µM (inactive) | 3.05 µM (inactive) | 29 µM (inactive) | 1.82 µM (inactive) | 20.9 µM (inactive) | 0.824 µM (active) | > 54.6 µM (inactive) | 
14 | O=C1CC[C@@]2(O)[C@H]3Cc4ccc(-c5cccc(O)c5)c5c4[C@@]2(CCN3CC2CC2)[C@H]1O5 | 0.839 µM (active) | 21.3 µM (inactive) |  | 23.3 µM (inactive) | 14.1 µM (inactive) | 18.2 µM (inactive) | 14.6 µM (inactive) | 16.9 µM (inactive) |  | 11.6 µM (inactive) | 17.6 µM (inactive) | 22.4 µM (inactive) | 19.8 µM (inactive) | 10.7 µM (inactive) | 32.2 µM (inactive) | 16.3 µM (inactive) | 20.3 µM (inactive) | < 0.01 µM (active) |  | 21.6 µM (inactive)
15 | CCOC(=O)CN1C(=O)C(=O)N(c2ccc(OC)c3ccccc23)C1=O |  |  |  | > 100 µM (inactive) | 34.6 µM (inactive) | > 100 µM (inactive) | > 100 µM (inactive) | > 100 µM (inactive) | > 100 µM (inactive) | > 100 µM (inactive) | > 100 µM (inactive) |  | > 100 µM (inactive) | > 100 µM (inactive) | > 100 µM (inactive) | > 100 µM (inactive) | > 100 µM (inactive) | > 100 µM (inactive) | > 100 µM (inactive) | > 100 µM (inactive)
16 | O=S(=O)(/N=c1\[nH]c(-c2cc(O)c(O)c(O)c2)cs1)c1ccc(Cl)cc1Cl | 18.7 µM (inactive) | 53.1 µM (inactive) | 20.1 µM (inactive) | 22.1 µM (inactive) | 20.4 µM (inactive) | 19.7 µM (inactive) | 25.1 µM (inactive) | 17.6 µM (inactive) | 15.3 µM (inactive) | 18.1 µM (inactive) | 18.7 µM (inactive) | 21.3 µM (inactive) | 17.2 µM (inactive) | > 100 µM (inactive) | > 100 µM (inactive) | 17.1 µM (inactive) | 34.5 µM (inactive) | 19.9 µM (inactive) | 25.7 µM (inactive) | 

Reference: ChEMBL document CHEMBL1201862, “PubChem BioAssay data set” (2004)
